In experiment [1] the test system is SGPC. Format: biochemical, Streptomyces griseus. The following applies: for % remaining activity compared to a noninhibited control: pH 8.
For experiment [2], the system named is SGPC. The experiment can be described thus: Substrate specificity of SGPC with tetrapeptide substrates sAAPXpNA. Format: biochemical, Streptomyces griseus. The following applies: pH 8.0, 10% DMSO, 24° C. How it is done: The enzyme was assayed with a series of tetrapeptide substrates which had the form succinyl-Ala-Ala-Pro-X-para-nitroanilide (sAAPXpNA) (SEQ ID NOS. 3-20), where X is the P1 amino acid (the residue found on the N-terminal side of the bond which is cleaved). Kinetics constants kcat and Km were determined by assaying an appropriate dilution of SGPC with eight different concentrations of each substrate. Each substrate was dissolved in 100% DMSO to a concentration of 100 mM with the exception of sAAPQpNA (SEQ ID NO. 13) which was soluble only to a concentration of 15 mM. Five ul of an appropriate dilution of SGPC was placed in the wells of a microtiter dish. The reaction was initiated by adding 95 ul of the reaction mixture which was comprised of 50 ul of sodium bicine, pH 8.0, 35 ul of water, and 10 ul of the appropriate concentration of substrate in DMSO. The final concentration of DMSO was 10% in all of the reactions. All substrate concentrations were done in triplicate and rates were determined at 24° C. using a microtiter plate reader.

Experiment [3] addresses sAAPSpNA.
Experiment [4] concerns the target sAAPHpNA.
In experiment [5] the target is sAAPLpNA.
Experiment [6] addresses sAAPApNA.
Experiment [7] has as its target sAAPDpNA.
Experiment [8] concerns the target sAAPNpNA.
The target in experiment [9] is succinyl-Ala-Ala-Pro-Phe-para-nitroanilide.
Experiment [10] concerns the target sAAPQpNA.
The target in experiment [11] is sAAPCpNA.
Experiment [12] deals with sAAPYpNA.
For experiment [13], the target named is sAAPRpNA.
Experiment [14] has as its target sAAPKpNA.
Experiment [15] concerns the target sAAPTpNA.
Experiment [16] deals with sAAPVpNA.
For experiment [17], the target named is sAAPMpNA.

Where “and” joins values, the source holds several entries; their conditions need not be identical. Equal values may be shown once. *1 amine or outer side, *2 acyl side, *3 side chain or, on linkers, in order; H or OH if unused. Where a SMILES comes first, the peptide text is derived from it. The star is where a group is joined. pNA = O=[N+]([O-])c1ccc(N*)cc1; Suc = O=C(CCC(=O)[*:2])[*:1]

As to `O=C(O)CN(CCN(CC(=O)O)CC(=O)O)CC(=O)O` [EDTA, ethylenediaminetetraacetic acid], in experiment [1], the “inhibition of SGPC (in words)” value is on record as “no significant inhibition”; the “% remaining activity compared to a noninhibited control” value is 97% and 94%.
Turning to `O=C(O)CI` [IOAc, iodoacetic acid], in experiment [1], the “inhibition of SGPC (in words)” value is given as “no significant inhibition”; the “% remaining activity compared to a noninhibited control” value is 104% and 103%.
As for `O=S(=O)(F)Cc1ccccc1` [PMSF, phenylmethylsulfonyl fluoride], in experiment [1], the “inhibition of SGPC (in words)” value is given as “inhibit SGPC”; the “% remaining activity compared to a noninhibited control” value was 0.07% and 0.06%.
Turning to `C[C@H](NC(=O)CCC(=O)O)C(=O)N[C@@H](C)C(=O)N1CCC[C@H]1C(=O)N[C@@H](C)C(=O)Nc1ccc([N+](=O)[O-])cc1` [sAAPApNA] (Suc-AAPA-pNA), in experiment [2], the Km was 5.29 mM, the kcat came to 36.1 S^-1 and the “kcat /Km” value was 6,826 M^-1 S^-1.
In the case of `C[C@H](NC(=O)CCC(=O)O)C(=O)N[C@@H](C)C(=O)N1CCC[C@H]1C(=O)N[C@@H](CS)C(=O)Nc1ccc([N+](=O)[O-])cc1` [sAAPCpNA] (Suc-AAPC-pNA), in experiment [2], the Km was 4.26 mM, the kcat amounted to 61.3 S^-1 and the “kcat /Km” value is 14,380 M^-1 S^-1.
Taken in the same sequence, the figures for `C[C@H](NC(=O)CCC(=O)O)C(=O)N[C@@H](C)C(=O)N1CCC[C@H]1C(=O)N[C@@H](CC(=O)O)C(=O)Nc1ccc([N+](=O)[O-])cc1` [sAAPDpNA] (Suc-AAPD-pNA) were 19.6 mM, 6.89 S^-1 and 351 M^-1 S^-1.
For the compound `C[C@H](NC(=O)CCC(=O)O)C(=O)N[C@@H](C)C(=O)N1CCC[C@H]1C(=O)N[C@@H](CCC(=O)O)C(=O)Nc1ccc([N+](=O)[O-])cc1` [sAAPEpNA] (Suc-AAPE-pNA), in experiment [2], the “rates seen with the substrate” value is given as “too samll to be reliable”.
Regarding `C[C@H](NC(=O)CCC(=O)O)C(=O)N[C@@H](C)C(=O)N1CCC[C@H]1C(=O)N[C@@H](Cc1ccccc1)C(=O)Nc1ccc([N+](=O)[O-])cc1` [sAAPFpNA, succinyl-Ala-Ala-Pro-Phe-para-nitroanilide] (Suc-AAPF-pNA), in experiment [2], the Km came to 0.29 mM, the kcat stood at 39.7 S^-1 and the “kcat /Km” value is 137,600 M^-1 S^-1.
As to `C[C@H](NC(=O)CCC(=O)O)C(=O)N[C@@H](C)C(=O)N1CCC[C@H]1C(=O)NCC(=O)Nc1ccc([N+](=O)[O-])cc1` [sAAPGpNA] (Suc-AAPG-pNA), the “rates seen with the substrate” value in experiment [2] is “too samll to be reliable”.
Regarding `C[C@H](NC(=O)CCC(=O)O)C(=O)N[C@@H](C)C(=O)N1CCC[C@H]1C(=O)N[C@@H](Cc1cnc[nH]1)C(=O)Nc1ccc([N+](=O)[O-])cc1` [sAAPHpNA] (Suc-AAPH-pNA), in experiment [2], the Km worked out at 1.09 mM, the kcat is recorded as 24.0 S^-1 and the “kcat /Km” value is recorded as 21,960 M^-1 S^-1.
With `CC[C@H](C)[C@H](NC(=O)[C@@H]1CCCN1C(=O)[C@H](C)NC(=O)[C@H](C)NC(=O)CCC(=O)O)C(=O)Nc1ccc([N+](=O)[O-])cc1` [sAAPIpNA] (Suc-AAPI-pNA), the “rates seen with the substrate” value in [2] was “too samll to be reliable”.
For the compound `C[C@H](NC(=O)CCC(=O)O)C(=O)N[C@@H](C)C(=O)N1CCC[C@H]1C(=O)N[C@@H](CCCCN)C(=O)Nc1ccc([N+](=O)[O-])cc1` [sAAPKpNA] (Suc-AAPK-pNA), in experiment [2], the Km was found to be 4.22 mM, the kcat stood at 10.9 S^-1 and the “kcat /Km” value is 2,577 M^-1 S^-1.
Turning to `CC(C)C[C@H](NC(=O)[C@@H]1CCCN1C(=O)[C@H](C)NC(=O)[C@H](C)NC(=O)CCC(=O)O)C(=O)Nc1ccc([N+](=O)[O-])cc1` [sAAPLpNA] (Suc-AAPL-pNA), in experiment [2], the Km came to 0.92 mM, the kcat is given as 24.8 S^-1 and the “kcat /Km” value was 27,030 M^-1 S^-1.
For `CSCC[C@H](NC(=O)[C@@H]1CCCN1C(=O)[C@H](C)NC(=O)[C@H](C)NC(=O)CCC(=O)O)C(=O)Nc1ccc([N+](=O)[O-])cc1` [sAAPMpNA] (Suc-AAPM-pNA), in [2], the Km was 0.39 mM, the kcat amounted to 39.3 S^-1 and the “kcat /Km” value was 100,400 M^-1 S^-1.
Taken in the same sequence, the figures for `C[C@H](NC(=O)CCC(=O)O)C(=O)N[C@@H](C)C(=O)N1CCC[C@H]1C(=O)N[C@@H](CC(N)=O)C(=O)Nc1ccc([N+](=O)[O-])cc1` [sAAPNpNA] (Suc-AAPN-pNA) were 2.91 mM, 35.3 S^-1 and 12,160 M^-1 S^-1.
As for `C[C@H](NC(=O)CCC(=O)O)C(=O)N[C@@H](C)C(=O)N1CCC[C@H]1C(=O)N[C@@H](CCC(N)=O)C(=O)Nc1ccc([N+](=O)[O-])cc1` [sAAPQpNA] (Suc-AAPQ-pNA), in experiment [2], the Km came to 14.3 mM, the kcat amounted to 36.3 S^-1 and the “kcat /Km” value is recorded as 2,547 M^-1 S^-1.
Taken in the same sequence, the figures for `C[C@H](NC(=O)CCC(=O)O)C(=O)N[C@@H](C)C(=O)N1CCC[C@H]1C(=O)N[C@@H](CCCNC(=N)N)C(=O)Nc1ccc([N+](=O)[O-])cc1` [sAAPRpNA] (Suc-AAPR-pNA) were 4.17 mM, 16.7 S^-1 and 4,001 M^-1 S^-1.
On to `C[C@H](NC(=O)CCC(=O)O)C(=O)N[C@@H](C)C(=O)N1CCC[C@H]1C(=O)N[C@@H](CO)C(=O)Nc1ccc([N+](=O)[O-])cc1` [sAAPSpNA] (Suc-AAPS-pNA), for which, in [2], the Michaelis constant (Km) turned out to be 3.73 mM, the kcat is 7.05 S^-1 and the “kcat /Km” value is on record as 1,893 M^-1 S^-1.
Taken in the same sequence, the figures for `C[C@H](NC(=O)CCC(=O)O)C(=O)N[C@@H](C)C(=O)N1CCC[C@H]1C(=O)N[C@H](C(=O)Nc1ccc([N+](=O)[O-])cc1)[C@@H](C)O` [sAAPTpNA] (Suc-AAPT-pNA) were 4.34 mM, 7.69 S^-1 and 1,769 M^-1 S^-1.
With `CC(C)[C@H](NC(=O)[C@@H]1CCCN1C(=O)[C@H](C)NC(=O)[C@H](C)NC(=O)CCC(=O)O)C(=O)Nc1ccc([N+](=O)[O-])cc1` [sAAPVpNA] (Suc-AAPV-pNA), in experiment [2], the Km is 1.08 mM, the kcat is 0.53 S^-1 and the “kcat /Km” value is 1,422 M^-1 S^-1.
On to `C[C@H](NC(=O)CCC(=O)O)C(=O)N[C@@H](C)C(=O)N1CCC[C@H]1C(=O)N[C@@H](Cc1ccc(O)cc1)C(=O)Nc1ccc([N+](=O)[O-])cc1` [sAAPYpNA] (Suc-AAPY-pNA), for which, in experiment [2], the Km turned out to be 0.49 mM, the kcat is 27.7 S^-1 and the “kcat /Km” value was 61,770 M^-1 S^-1.
Turning to S. griseus protease C (enzyme), the kcat /Km was found to be 1890 M^-1 S^-1 in [3]; 22000 M^-1 S^-1 in experiment [4]; 27000 M^-1 S^-1 in experiment [5]; 6830 M^-1 S^-1 in experiment [6]; 351 M^-1 S^-1 in [7]; 12200 M^-1 S^-1 in experiment [8]. The kcat /Km came out at 138000 M^-1 S^-1 in experiment [9]; 2550 M^-1 S^-1 in experiment [10]; 14400 M^-1 S^-1 in experiment [11]; 61800 M^-1 S^-1 in experiment [12]; 4000 M^-1 S^-1 in [13]; 2580 M^-1 S^-1 in [14]. The results for the kcat /Km in [15], in experiment [16] and in [17] were 1770 M^-1 S^-1, 1420 M^-1 S^-1 and 100000 M^-1 S^-1, respectively.

Source of the values: US5646028A, “Alkaline serine protease streptomyces griseus var. alkaliphus having enhanced stability against urea or guanidine” (The Clorox Company, priority 1995, dated 1997).
